Laboratory results published in patent US20250152585A1, “PHARMACEUTICAL COMPOUND” (Duke Street Bio Limited, priority 2022, published 2025).
Where two headings read alike, the source gives them in different places.

Experiments:
[1] = biological target: T1, N-terminally FLAG-tagged PARP2 (amino acids 1-583) (Homo sapiens, UniProt Q9UGN5); test: PARP2 probe displacement HTRF assay; assay type: binding; settings: binned Kd
T1 construct: N-terminally FLAG-tagged PARP2 (amino acids 1-583)
Protocol: Data analysis was performed identical as for PARP1.

[2] = biological target: T2, full length N-terminally FLAG-tagged PARP1 (Homo sapiens, UniProt P09874); test: PARP1 probe displacement HTRF assay; settings: for Selectivity: PARP1 over PARP2, ratio Kd (PARP2)/Kd (PARP1); for Kd: binned Kd
[3] = biological target: T2, full length N-terminally FLAG-tagged PARP1; test: PARP1 biochemical DELFIA assay (auto-PARylation); set-up: recombinant full length human N-terminally FLAG-tagged PARP1
[4] = read-out: PARP1 HTRF, PARP1 probe displacement HTRF
[5] = binned IC50, PARP1 biochemical DELFIA assay
[6] = PARP1 HTRF, probe displacement HTRF
[7] = binned IC50, biochemical auto-PARylation assay
[8] = read-out: PARP1 HTRF, probe displacement HTRF
[9] = PARP1 HTRF, PARP1 probe displacement HTRF

T2 sequence (P09874 whole entry): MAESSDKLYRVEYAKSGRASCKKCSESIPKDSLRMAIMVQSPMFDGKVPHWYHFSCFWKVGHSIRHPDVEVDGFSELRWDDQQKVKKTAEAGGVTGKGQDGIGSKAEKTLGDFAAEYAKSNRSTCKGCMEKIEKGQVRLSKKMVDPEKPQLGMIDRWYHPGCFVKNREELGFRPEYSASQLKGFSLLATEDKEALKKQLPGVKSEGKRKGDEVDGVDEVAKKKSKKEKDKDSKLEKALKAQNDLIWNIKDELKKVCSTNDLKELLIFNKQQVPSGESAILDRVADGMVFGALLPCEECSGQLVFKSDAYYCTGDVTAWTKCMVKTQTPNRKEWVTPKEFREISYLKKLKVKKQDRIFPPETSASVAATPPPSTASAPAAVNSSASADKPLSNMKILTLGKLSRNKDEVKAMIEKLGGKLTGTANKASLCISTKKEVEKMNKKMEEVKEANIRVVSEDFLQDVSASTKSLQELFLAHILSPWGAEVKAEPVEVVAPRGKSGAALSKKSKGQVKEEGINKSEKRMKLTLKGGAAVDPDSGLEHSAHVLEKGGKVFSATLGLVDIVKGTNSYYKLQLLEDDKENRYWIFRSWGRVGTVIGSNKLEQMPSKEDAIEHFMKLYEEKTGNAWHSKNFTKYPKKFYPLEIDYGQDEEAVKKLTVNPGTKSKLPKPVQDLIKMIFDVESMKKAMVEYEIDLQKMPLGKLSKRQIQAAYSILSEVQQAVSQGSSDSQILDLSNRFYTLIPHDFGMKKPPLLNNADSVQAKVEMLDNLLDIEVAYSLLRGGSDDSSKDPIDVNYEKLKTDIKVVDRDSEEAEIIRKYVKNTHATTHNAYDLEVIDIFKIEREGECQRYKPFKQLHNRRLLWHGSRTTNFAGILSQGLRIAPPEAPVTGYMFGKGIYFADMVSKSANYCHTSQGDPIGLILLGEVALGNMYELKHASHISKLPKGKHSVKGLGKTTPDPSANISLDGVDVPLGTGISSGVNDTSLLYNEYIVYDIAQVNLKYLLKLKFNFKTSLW
T1 sequence (Q9UGN5 whole entry, the tested form may be a part): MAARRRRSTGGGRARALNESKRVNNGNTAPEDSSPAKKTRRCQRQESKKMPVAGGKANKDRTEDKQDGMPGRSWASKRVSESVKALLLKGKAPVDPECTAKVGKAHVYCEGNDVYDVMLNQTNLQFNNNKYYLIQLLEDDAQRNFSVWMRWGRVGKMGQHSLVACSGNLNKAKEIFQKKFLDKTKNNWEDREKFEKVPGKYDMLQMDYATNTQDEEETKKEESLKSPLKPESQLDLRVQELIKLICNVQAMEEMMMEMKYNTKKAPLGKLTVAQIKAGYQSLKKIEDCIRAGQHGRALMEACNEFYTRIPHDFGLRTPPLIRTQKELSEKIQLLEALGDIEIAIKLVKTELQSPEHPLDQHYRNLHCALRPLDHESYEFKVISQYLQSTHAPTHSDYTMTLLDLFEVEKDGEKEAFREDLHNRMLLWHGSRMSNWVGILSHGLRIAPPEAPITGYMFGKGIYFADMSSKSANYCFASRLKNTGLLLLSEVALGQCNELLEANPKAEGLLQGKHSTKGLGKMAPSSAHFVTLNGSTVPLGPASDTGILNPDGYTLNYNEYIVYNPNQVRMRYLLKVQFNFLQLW

Row | Kd ([1]; PARP2 probe displacement HTRF) | Kd [2, 4] | IC50 [3, 5] | Kd ([1]; probe displacement HTRF) | Kd [2, 6] | IC50 [3, 7] | Kd [2, 8] | Kd [2, 9] | SMILES | Selectivity ([2]; probe displacement HTRF)
1 | > 10000 nM | 10 to 100 nM | 10 to 100 nM |  |  |  |  |  | CNC(=O)c1ccc(N2CCC(N3CCCC(c4nc5ncccc5c(=O)[nH]4)C3)CC2)cn1 (single isomer, unassigned) [Compound 98a] | +++ (+++ indicate a value of at least 100)
2 |  |  |  | 1000 to 10000 nM |  | 100 to 1000 nM | 100 to 1000 nM |  | CC(=O)Nc1ccc(N2CCC(N3CCC(c4nc5ccccc5c(=O)[nH]4)C3)CC2)cn1 (single isomer, unassigned) [Compound 220a] | − (− indicates a value of less than 10)
3 | 100 to 1000 nM | 10 to 100 nM | 10 to 100 nM |  |  |  |  |  | NC(=O)c1ccc(N2CCC(N3CCC(c4nc5ccccc5c(=O)[nH]4)C3)CC2)cn1 (single isomer, unassigned) [Compound 123a] | + (+ indicates a value of 10 to less than 50)
4 | > 10000 nM | 10 to 100 nM | 10 to 100 nM |  |  |  |  |  | CNC(=O)c1ccc(N2CCC(CN3CCC(c4nc5ccccc5c(=O)[nH]4)CC3)C2)cn1 (single isomer, unassigned) [Compound 50b] | +++ (+++ indicate a value of at least 100)
5 |  |  |  | 100 to 1000 nM |  | < 10 nM | < 10 nM |  | CNC(=O)c1ccc(N2CCC(N3CCC(c4[nH]c(=O)c5ccccc5c4Cl)C3)CC2)cn1 (single isomer, unassigned) [Compound 219b] | +++ (+++ indicate a value of at least 100)
6 | > 10000 nM | 1000 to 10000 nM | 1000 to 10000 nM |  |  |  |  |  | CNC(=O)c1ccc(N2CCC(N3CCCC(C)(c4nc5ccccc5c(=O)[nH]4)C3)CC2)cn1 (single isomer, unassigned) [Compound 66a] | − (− indicates a value of less than 10)
7 | 100 to 1000 nM |  | 10 to 100 nM |  |  |  |  | 10 to 100 nM | CNC(=O)c1ccc(N2CCC(N3CCC(c4nc5c(Cl)cccc5c(=O)[nH]4)C3)CC2)cn1 (single isomer, unassigned) [Compound 52a, 5-(4-(3-(8-chloro-4-oxo-3,4-dihydroquinazolin-2-yl)pyrrolidin-1-yl)piperidin-1-yl)-N-methylpicolinamide] | − (− indicates a value of less than 10)
8 | 100 to 1000 nM | < 10 nM | < 10 nM |  |  |  |  |  | CNC(=O)c1ccc(N2CCC(N3CCC(c4cc5ncccc5c(=O)[nH]4)C3)CC2)cn1 (single isomer, unassigned) [Compound 218b] | +++ (+++ indicate a value of at least 100)
9 |  |  |  | 100 to 1000 nM | < 10 nM | < 10 nM |  |  | CNC(=O)c1ccc(N2CCC(N3CC4(c5nc6ccc(F)cc6c(=O)[nH]5)CC3C4)CC2)cn1 [Compound 238] | +++ (+++ indicate a value of at least 100)

The next lines start with the compound.

Row | SMILES | Kd ([1]; PARP2 probe displacement HTRF) | Kd [2, 4] | IC50 [3, 5] | Kd ([1]; probe displacement HTRF) | Kd [2, 6] | IC50 [3, 7] | Kd [2, 8] | Kd [2, 9] | Selectivity ([2]; probe displacement HTRF)
10 | CNC(=O)c1ccc(OCCN2CCCC(c3nc4ccccc4c(=O)[nH]3)C2)cn1 (single isomer, unassigned) [Compound 65b] | 1000 to 10000 nM | 100 to 1000 nM | 100 to 1000 nM |  |  |  |  |  | + (+ indicates a value of 10 to less than 50)
11 | N#Cc1ccc(N2CCC(N3CCC(c4nc5ccccc5c(=O)[nH]4)C3)CC2)nc1 (single isomer, unassigned) [Compound 55a] | 1000 to 10000 nM | < 10 nM | < 10 nM |  |  |  |  |  | +++ (+++ indicate a value of at least 100)
12 | O=c1[nH]c(C2CCN(C3CCN(c4ccc(Cl)cc4)CC3)C2)nc2ccccc12 (single isomer, unassigned) [Compound 43a] | 100 to 1000 nM | 10 to 100 nM | 100 to 1000 nM |  |  |  |  |  | − (− indicates a value of less than 10)
13 | O=c1[nH]c(C2CCN(C3CCN(c4ccccc4)CC3)C2)nc2ccccc12 (single isomer, unassigned) [Compound 32a] | 1000 to 10000 nM | 10 to 100 nM | 10 to 100 nM |  |  |  |  |  | + (+ indicates a value of 10 to less than 50)
14 | CNC(=O)c1ccc(N2CCC(N3CC4(c5nc6ccc(F)cc6c(=O)[nH]5)CC3C4)CC2)c(C#N)n1 [Compound 387] |  |  |  | 100 to 1000 nM | < 10 nM | < 10 nM |  |  | +++ (+++ indicate a value of at least 100)
15 | CNC(=O)c1ccc(OCCN2CCC(c3nc4ccccc4c(=O)[nH]3)C2)cn1 (single isomer, unassigned) [Compound 62b] | 1000 to 10000 nM | 100 to 1000 nM | 100 to 1000 nM |  |  |  |  |  | − (− indicates a value of less than 10)
16 | CNC(=O)c1ccc(N2CCC(N3CCC(c4ncc(C(F)(F)F)c(=O)[nH]4)C3)CC2)cn1 (single isomer, unassigned) [Compound 56b] | > 10000 nM | 100 to 1000 nM | 1000 to 10000 nM |  |  |  |  |  | − (− indicates a value of less than 10)
17 | CNC(=O)c1ncc(N2CCC(N3CCC(c4cc5cccc(F)c5c(=O)[nH]4)C3)CC2)c(C)n1 (racemic) [Compound 241rac] |  |  |  | 100 to 1000 nM |  | < 10 nM | < 10 nM |  | +++ (+++ indicate a value of at least 100)
18 | CNC(=O)c1ccc(N2CCC(N3CCC(c4nc5c(c(=O)[nH]4)CCCN5C)C3)CC2)cn1 (single isomer, unassigned) [Compound 208a, N-methyl-5-(4-(3-(8-methyl-4-oxo-3,4,5,6,7,8-hexahydropyrido[2,3-d]pyrimidin-2-yl)pyrrolidin-1-yl)piperidin-1-yl)picolinamide] | 100 to 1000 nM |  | < 10 nM |  |  |  |  | 10 to 100 nM | + (+ indicates a value of 10 to less than 50)
19 | CCc1ccc(C2CCN(C3CCN(c4ccc(C(=O)NC)nn4)CC3)C2)[nH]c1=O (single isomer, unassigned) [Compound 210b] | 1000 to 10000 nM | < 10 nM | < 10 nM |  |  |  |  |  | +++ (+++ indicate a value of at least 100)
20 | CNC(=O)c1ccc(N2CCC(N3CCC(c4cc5cccc(F)c5c(=O)[nH]4)C3)CC2)cn1 (racemic) [Compound 136rac, 5-{4-[3-(8-fluoro-1-oxo-2H-isoquinolin-3-yl)pyrrolidin-1-yl]piperidin-1-yl}-N-methylpyridine-2-carboxamide] | 10 to 100 nM |  | < 10 nM |  |  |  |  | < 10 nM | +++ (+++ indicate a value of at least 100)
21 | CNC(=O)c1ncc(N2CCC(N3CCC(c4cc5ccc(F)cc5c(=O)[nH]4)C3)CC2)c(C)n1 (single isomer, unassigned) [Compound 265b] |  |  |  | 100 to 1000 nM |  | < 10 nM | < 10 nM |  | +++ (+++ indicate a value of at least 100)
22 | CNC(=O)c1ccc(N2CCC(N3CCC(c4cc5ncc(F)cc5c(=O)[nH]4)C3)CC2)c(F)n1 (single isomer, unassigned) [Compound 324a] |  |  |  | > 10000 nM |  | < 10 nM | < 10 nM |  | +++ (+++ indicate a value of at least 100)
23 | CNC(=O)c1ccc(N2CCC(N3CCCC(c4nc5onc(C(F)(F)F)c5c(=O)[nH]4)C3)CC2)cn1 (racemic) [Compound 191rac] | > 10000 nM | 100 to 1000 nM | 100 to 1000 nM |  |  |  |  |  | + (+ indicates a value of 10 to less than 50)
24 | CNC(=O)c1ccc(N2CCC(N3CCC(c4[nH]c(=O)c5cc(F)ccc5c4F)C3)CC2)cn1 (single isomer, unassigned) [Compound 401b] |  |  |  | 10 to 100 nM |  | < 10 nM | < 10 nM |  | + (+ indicates a value of 10 to less than 50)
25 | CNC(=O)c1ccc(N2CCC(N3CCC(c4nc5c(C)cn(C)c5c(=O)[nH]4)C3)CC2)cn1 (racemic) [Compound 163rac] | 100 to 1000 nM | < 10 nM | < 10 nM |  |  |  |  |  | +++ (+++ indicate a value of at least 100)
26 | CNC(=O)c1ccc(N2CCC(N3CCC(c4nc5c(c(=O)[nH]4)COC5)C3)CC2)cn1 (single isomer, unassigned) [Compound 272b] |  |  |  | > 10000 nM |  | 100 to 1000 nM | 100 to 1000 nM |  | + (+ indicates a value of 10 to less than 50)
27 | CNC(=O)c1ccc(N2CCC(N3CCCC(c4nc5c(c(C(F)(F)F)nn5C)c(=O)[nH]4)C3)CC2)cn1 (single isomer, unassigned) [Compound 190b] | 10 to 100 nM | < 10 nM | < 10 nM |  |  |  |  |  | ++ (++ indicates a value of 50 to less than 100)
28 | CC(=O)Nc1ccc(N2CCC(N3CCC(c4cc5ccccc5c(=O)[nH]4)C3)CC2)c(Cl)c1 (single isomer, unassigned) [Compound 273a] |  |  |  | 1000 to 10000 nM |  | 100 to 1000 nM | 100 to 1000 nM |  | − (− indicates a value of less than 10)
29 | O=C(NC1CC1)c1ccc(N2CCC(N3CCC(c4cc5ncc(F)cc5c(=O)[nH]4)C3)CC2)cn1 (single isomer, unassigned) [Compound 372b] |  |  |  | 10 to 100 nM |  | < 10 nM | < 10 nM |  | +++ (+++ indicate a value of at least 100)
30 | CNC(=O)c1ccc(N2CCC(N3CCC(c4cc5cccc(O)c5c(=O)[nH]4)C3)CC2)cn1 (racemic) [Compound 271rac] |  |  |  | 100 to 1000 nM |  | < 10 nM | < 10 nM |  | +++ (+++ indicate a value of at least 100)
31 | CNC(=O)c1ncc(N2CCC(N3CCC(c4cc5cccc(F)c5c(=O)[nH]4)C3)CC2)c(C(F)(F)F)n1 (single isomer, unassigned) [Compound 277a] |  |  |  | 1000 to 10000 nM |  | < 10 nM | < 10 nM |  | +++ (+++ indicate a value of at least 100)
